One data set concerns Raji cells. Nature of the data set: Uptake in Raji cells by fluorescence microscopy. The data set is classed as cell-based. As for the experimental part: These studies were carried out by means of fluorescence microscopy, since curcumin and its two derivatives show fluorescence. […] Aliquots of the cells in medium were placed by pipetting onto poly-L-lysin-coated slides (to adhere the cells); the cells were covered with a cover glass after 30 minutes and stimulated by an appropriate filter using U.V. light.

Data set [1] is described as follows: Water solubility of saturated solutions in argon-saturated water, content by HPLC. The data set is classed as physicochemical. As to conditions: saturated solution at room temperature in argon-saturated water, HPLC UV 420 nm. Here is the method:
HPLC conditions: column lichrospher-100-RP18-5 μ, 125×4 mm Running agent/gradient/flow Acetonitrile/acetic acid 0.2 and/or 2%, 1 ml/min Detection: UV 420 nm
The relevant straight calibration line was respectively determined with the individual compounds. […] The content of 20 μl each of the saturated solutions was determined by means of HPLC.

The subject of the next data set is Epstein-Barr virus. In words: Inhibition of EBV induction (reactivation) in Raji-DR-LUC cells, luciferase activity. The data set is classed as cell-based. As to conditions: 50,000 Raji-DR cells, 10 nM TPA, 72 hours. Here is the method: The current studies were carried out with Raji-DR-LUC cells.
For this purpose, 50,000 Raji-DR cells were treated with 10 nM TPA minus/plus inhibitor (various concentrations) in a volume of 100 μl in a CO2 incubator for 72 hours. Following washing with PBS, the cells are lyzed; the luciferase activity is determined in luciferase buffer (20 mM tricins, 8 mM MgSO4, 0.1 mM EDTA, 30 mM DTE, pH 7.8) with luciferin/CoA ATP as a substrate in an always equal amount of cell lyzate. The induced luciferase activity per μg protein is determined in comparison with a calibration curve having an authentic luciferase. Inhibiting agents of EBV induction result in an induction of luciferase reduced as compared with the TPA control.

In data set [2] the test system is granulocytes (PMN) from human blood. Nature of the data set: Inhibition of the TPA-stimulated "oxygen burst" of granulocytes (chemiluminescence). In kind it is cell-based. As to conditions: 100,000 granulocytes, TPA 100 nM, luminol and/or lucigenin, CL integral over one hour. Here is the method: These studies were carried out by means of the inhibition of the “oxygen burst” of granulocytes (PMN) from human blood according to Hergenhahn et al. (1991) J. Cancer Res. Clin. Oncol. 117, 385-395, and Bouvier, Hergenhahn et al. (1993) Carcinogenesis 14, 1573-8. The granulocyte fraction from heparinized blood is enriched by agglutination of the erythrocytes with 2.5% dextran in PBS (30 min. at room temperature), freed from residual erythrocytes by lysis and used after washing with PBS in the test. In a total volume of 1 ml, 100,000 granulocytes each are admixed with luminol and/or lucigenin and heated to 37° C. in the chemiluminescence (CL) measuring device Biolumat LB 953 (EG&G Berthold, Wildbad); the cells are then stimulated with TPA at a final concentration of 100 nM. The CL curves are tracked for one hour; the integral underneath the curve is used as a standard for chemiluminescence.
When inhibitory substances are used, a concentration-dependent inhibitory effect results which manifests itself as a late rise, reduced amplitude of the maximum and partially as an early drop of the peak.

Another data set relates to cell cultures. As to conditions: described in the literature; cited from earlier work.
[3] abbreviates: Raji cells, 3 hours, 15 μM, image analysis.

Values after ≈ are worked out from the molar mass of the structure shown.

For orientation: solubility means the dissolved amount per volume that the medium holds. Lower therefore signals little dissolved substance. On to `COc1cc(C=CC(=O)CC(=O)C=Cc2ccc(O)c(OC)c2)ccc1O` [Curcumin, 1,7-bis(4-hydroxy-3-methoxyphenyl)-1,6-heptadiene-3,5-dione, reference compound], for which the “fluorescence of cells (cell-associated compound)” value in the data set on Raji cells (setting [3]) is “very bright fluorescence”. Moreover, in the data set with Raji cells (preliminary tests), the “time of maximum uptake in Raji cells” value was in the range of 2 to 3 h. In addition, the solubility in data set [1] (thermodynamic from solid) amounted to 4 µg/mL (≈ 10.9 µM). In addition, in the data set with Epstein-Barr virus, the “EBV inhibitory effect, rank order in series” value (“EBV inhibitory effect” for short) is “curcumin>curcumin monoglucoside>curcumin diglucoside”. Also, the “antioxidative effect, rank order in series” value (from here on “antioxidative effect”) in data set [2] is reported as “curcumin >>curcumin monoglucoside curcumin diglucoside”. Moreover, the “concentration in the medium at which chemopreventive effects occurred” value with cell cultures is listed as “at least 10 μM”.

For the compound “8,8′-bis-(B-D-glucopyranosyl)-curcumin [Curcumin diglucoside]”, the “fluorescence of cells (cell-associated compound)” value in the data set with Raji cells (setting [3]) is reported as “just visible”. Besides, in data set [1], the water solubility was above 10700 µg/mL. Also, the “EBV inhibitory effect” value in the data set with Epstein-Barr virus is reported as “curcumin>curcumin monoglucoside>curcumin diglucoside”. In addition, the “antioxidative effect” value in data set [2] was “curcumin >>curcumin monoglucoside curcumin diglucoside”.

“8-(β-D-glucopyranosyl)curcumin [Curcumin monoglucoside]”: the “factor by which cell fluorescence was reduced (versus curcumin)” value in the data set with Raji cells (setting [3]) was 10-100. Moreover, in data set [1], the water solubility stood at 13.2 ± 0.9 µg/mL. Moreover, the “EBV inhibitory effect” value in the data set with Epstein-Barr virus is listed as “curcumin>curcumin monoglucoside>curcumin diglucoside”. Also, the “antioxidative effect” value in data set [2] is “curcumin >>curcumin monoglucoside curcumin diglucoside”.
